The source of these data is patent publication US4923865A, “Substituted 1-(1H-imidazol-4-yl)alkyl-benzamides as anti-ischemics and as alpha-2-adrenergic receptor agonists” (U C B Societe Anonyme, priority 1988, dated 1990).

The target of series [1] is T1, presynaptic α2 -adrenergic receptors (Cavia porcellus, UniProt Q60474).
T1 construct: Stimulation of a guinea-pig ileum; from tissue; host or cells: guinea-pig ileum longitudinal muscle strips
T1 sequence (Q60474 1-464): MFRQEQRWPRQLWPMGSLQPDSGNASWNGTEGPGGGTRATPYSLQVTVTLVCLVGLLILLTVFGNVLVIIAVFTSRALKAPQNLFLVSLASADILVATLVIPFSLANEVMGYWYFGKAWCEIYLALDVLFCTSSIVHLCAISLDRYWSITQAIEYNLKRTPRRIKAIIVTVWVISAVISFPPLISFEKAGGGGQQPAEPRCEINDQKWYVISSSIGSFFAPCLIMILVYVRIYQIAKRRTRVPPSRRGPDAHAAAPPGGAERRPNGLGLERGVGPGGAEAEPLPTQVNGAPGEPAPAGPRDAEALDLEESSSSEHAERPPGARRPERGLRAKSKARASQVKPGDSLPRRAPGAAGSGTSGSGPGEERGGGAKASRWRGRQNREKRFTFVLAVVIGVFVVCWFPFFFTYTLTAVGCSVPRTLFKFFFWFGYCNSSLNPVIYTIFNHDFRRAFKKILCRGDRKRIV
The experiment in a line: Stimulation of the isolated guinea-pig atria (reduction in tachycardia). From the text: (b) Stimulation of the isolated guinea-pig atria. The release of noradrenalin at the level of the nerve endings is mediated by a feedback regulating mechanism through the presynaptic α2 -adrenergic receptors. […] Ed. D. S. DAVIES, J. L. REID, Pitman, London.
The electrical stimulation of the isolated guinea-pig atria induces a release of noradrenalin which results in an increase in the rate of the heart beat (tachycardia). This tachycardia is inhibited by an α2 -agonist such as, for example, clonidine, in a proportion which depends on the dose of the agonist used. The action of the α2 -agonist may be limited in the presence of an α2 -specific antagonist such as α-yohimbine.
The in vitro activity of the compounds of the invention on the presynaptic α2 -adrenergic receptors has been studied on the isolated guinea-pig atria, electrically stimulated according to the method described by I. C. MEDGETT et al., Naunyn-Schmiedeberg's Arch. Pharmacol. 304, (1978), 215-221. The compound to be studied is tested in increasing concentrations ranging from 10^-10 to 10^-3 mole/l. The concentration (IC30 in mole/l) which causes a 30% reduction in the maximum tachycardia obtained initially during the electrical stimulation of the atria in the absence of the compound to be tested, is determined.
On the other hand, in the presence of a concentration of 10^-6 mole/l of α-yohimbine, the concentration of compound A necessary to obtain a reduction of 30% in the tachycardia is greater than 10^-7 mole/l.

Series [2] deals with cerebral ischemia. The experiment in a line: General and permanent cerebral ischemia in rat (ligature of the two common carotid arteries). To be noted: 0.76 μg/kg (3.2 nmoles) i.p.; maximum score 17; control 12; P 0.005. The class given is in vivo, male Wistar rats. On the procedure:
(a) General and permanent cerebral ischemia in rat. Male Wistar rats (200 to 250 g) are anesthetized by inhalation of halothane (1 to 5%) contained in a N2 O--O2 (70:30) mixture. The two common carotid arteries are ligatured simultaneously close to the passage between the internal carotid and external carotid using the method described by M. LE PONCIN-LAFITTE et al., J. Pharmacol. (Paris), 14, (1983), 99-102.
The compound to be tested is administered intraperitoneally for a first time 30 minutes before making the ligatures, and subsequently 30 minutes and 270 minutes after making the ligatures. On the next day, and on the day after the next, the neurological deficit in the surviving animals is evaluated by the method described by C. CAPDEVILLE et al., J. Pharmacol. (Paris), 15, (1984), 231-237, and by B. KOLB et al., Neurobehav. Toxicol. Teratol. 7, (1985), 71-78. […] Table III gives for compound A, administered intraperitoneally at a dose of 0.76 μg/kg (3.2 nmoles), the mean of the neurological scores determined for the whole group of surviving animals of the control group and of the treated group, as recorded two days after the ligatures. The statistical significance (P) of the difference observed between these mean values is evaluated by the Mann-Whitney test.

The test system of series [3] is male NMRI mice. As to the kind of experiment: Toxicity, Irwin's test (lethal dose). The class given is in vivo. To be noted: intraperitoneal. On the procedure:
5. Toxicity. The toxicity of the compounds according to the present invention has been determined in male NMRI mice by means of Irwin's test (S. IRWIN, Psychopharmacologia, 13, (1968), 222-257).
Progressive doses of the test compound are administered intraperitoneally to groups of three mice until the lethal dose is reached (dose causing the death of two out of three animals within 48 hours). In Table IX below, the lethal dose in mg/kg found for the compounds of the invention is given. It can be seen from this Table that the compounds of the invention are not very toxic.

Molecules are shown by their SMILES.

The IC30 is the concentration needed for an effect of 30%. Take `Cl.NC(=O)c1cccc(Cc2c[nH]cn2)c1O` [A, 2-hydroxyl-3-[(1H-imidazol-4-yl)methyl]-benzamide hydrochloride]: in series [1] (in the presence of 10^-6 mole/l of α-yohimbine), the “concentration necessary to obtain a reduction of 30% in the tachycardia” value is on record as “greater than 10^-7 mole/l”. The IC30 in series [1] (isolated guinea-pig atria, electrical stimulation, read-out: IC30 (30% reduction in the maximum tachycardia)) was found to be 0.9 nM. In series [2], the “Neurological scores after 2 days” value is 15. In series [3], the “lethal dose (death of two out of three animals within 48 hours)” value came out at 760 mg/kg.
